Tests used:
Type in all cases: biochemical
[1] = target: T1, matriptase (Homo sapiens, UniProt Q9Y5Y6); assay: Fluorescent kinetic enzyme assay of matriptase activity (Boc-QAR-AMC); details: Table 2; read-out: Matriptase (IC50 nM)
T1 construct: purchased R&D Systems 3946-SE-010
T1 sequence (Q9Y5Y6 615-855 limits assumed): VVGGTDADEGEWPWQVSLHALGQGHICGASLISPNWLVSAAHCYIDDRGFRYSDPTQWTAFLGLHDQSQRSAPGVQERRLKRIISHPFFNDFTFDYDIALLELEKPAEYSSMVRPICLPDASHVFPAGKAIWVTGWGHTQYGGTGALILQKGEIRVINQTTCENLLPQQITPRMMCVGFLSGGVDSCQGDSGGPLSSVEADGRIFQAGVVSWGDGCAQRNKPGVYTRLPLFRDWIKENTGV

[2] = target: T2, activated hepsin (Homo sapiens, UniProt P05981); assay: Fluorescent kinetic enzyme assay of hepsin activity (Boc-QAR-AMC); details: Table 2; read-out: Hepsin (IC50 nM)
T2 construct: purchased R&D Systems 4776-SE-010
T2 sequence (P05981 163-417 limits assumed): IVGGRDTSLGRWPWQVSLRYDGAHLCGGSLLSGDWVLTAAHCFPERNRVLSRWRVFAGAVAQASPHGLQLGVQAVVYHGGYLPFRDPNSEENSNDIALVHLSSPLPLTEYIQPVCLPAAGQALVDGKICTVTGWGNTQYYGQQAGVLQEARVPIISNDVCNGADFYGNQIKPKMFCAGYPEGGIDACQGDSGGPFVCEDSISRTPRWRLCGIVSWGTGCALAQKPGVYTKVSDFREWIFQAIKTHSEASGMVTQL
T2 sequence (P05981 1-162 partner limits assumed): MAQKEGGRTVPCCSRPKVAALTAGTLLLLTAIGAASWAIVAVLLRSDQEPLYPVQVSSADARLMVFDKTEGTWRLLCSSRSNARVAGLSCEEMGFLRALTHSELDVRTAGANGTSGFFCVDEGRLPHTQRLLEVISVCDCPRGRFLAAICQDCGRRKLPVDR

[3] = target: Factor Xa (Homo sapiens, UniProt P00742); assay: Chromogenic kinetic enzyme assay of Factor Xa (S2222); details: Table 2; chromogenic assay; read-out: Factor Xa* (IC50 nM)
Factor Xa, sequence (P00742 235-488 limits assumed): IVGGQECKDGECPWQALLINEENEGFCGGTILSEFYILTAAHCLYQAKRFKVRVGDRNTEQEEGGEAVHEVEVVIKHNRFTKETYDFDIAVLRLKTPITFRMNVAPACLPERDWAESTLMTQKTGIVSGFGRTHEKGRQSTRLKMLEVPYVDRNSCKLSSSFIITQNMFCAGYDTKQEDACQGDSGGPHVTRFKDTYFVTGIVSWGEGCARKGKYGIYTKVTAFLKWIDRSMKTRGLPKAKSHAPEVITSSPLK
Factor Xa, sequence (P00742 41-179 partner limits assumed): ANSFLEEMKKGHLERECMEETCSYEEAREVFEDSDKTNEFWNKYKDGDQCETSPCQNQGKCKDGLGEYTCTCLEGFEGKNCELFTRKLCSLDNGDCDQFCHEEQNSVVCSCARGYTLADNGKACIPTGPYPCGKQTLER
Description: Using GraphPad Prism (GraphPad Software, San Diego, CA), a four-parameter curve fit was used to determine the inhibitor IC50s from a plot of the mean reaction velocity versus the inhibitor concentration. The IC50 values represent the average of three or more separate experimental determinations. Apparent Ki values were calculated from the IC50 values using the Cheng and Prusoff equation (Ki=IC50/(1+[S]/Km).
Using GraphPad Prism version 6.04 software program, (GraphPad Software, San Diego, CA, graphpad.com), a four parameter curve fit was used to determine the inhibitor IC50s from a plot of the mean reaction velocity versus the inhibitor concentration.
Fluorescent inhibitor and chromogenic proteolytic assays were performed for compounds prepared in Example 11 in general accordance with the procedures described in Example 9.

[4] = target: T3, recombinant HGFA serine protease domain (Homo sapiens, UniProt Q04756); assay: Fluorescent kinetic enzyme assay of HGFA activity (Boc-QLR-AMC); details: Table 2; read-out: HGFA (IC50 nM)
T3 construct: His6 tag (N); seven amino acid spacer plus TEV cleavage site (N); made in house; host or cells: High 5 insect cells (baculovirus; Sf9 for virus production)
T3 sequence (Q04756 373-655): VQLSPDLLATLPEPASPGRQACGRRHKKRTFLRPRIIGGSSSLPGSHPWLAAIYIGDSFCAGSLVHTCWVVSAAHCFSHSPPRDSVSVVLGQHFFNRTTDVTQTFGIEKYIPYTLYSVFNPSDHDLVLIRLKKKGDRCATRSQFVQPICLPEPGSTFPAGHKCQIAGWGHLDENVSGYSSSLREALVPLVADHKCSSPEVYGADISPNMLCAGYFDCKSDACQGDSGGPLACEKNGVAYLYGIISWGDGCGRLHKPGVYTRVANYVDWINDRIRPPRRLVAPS
Excerpt: The compounds prepared in Examples 1 to 8 were subjected to a series of inhibitions studies. The compounds were first tested in an HGFA enzymatic assay using the fluorogenic substrate Boc-QLR-AMC with a recombinant form of the HGFA serine protease domain.
This PCR product was cloned into the SfoI-HindIII sites of a modified pFastBac HT baculovirus expression vector (Addgene, Cambridge, MA). This vector contains a six amino His tag followed by a seven amino spacer and a seven amino acid TEV cleavage site placed immediately downstream of the honey bee melittin signal peptide. Using a modified Bac to Bac Expression System (Life Technologies, Carlsbad, CA), recombinant HGFA bacmids were obtained by transforming DH10Bac Escherichia coli cells. To obtain HGFA containing baculovirus, purified bacmids were transfected into Sf9 insect cells. After 5 days in culture at 27° C., media was harvested from transfected Sf9 cells. This media was used to prepare baculovirus infected insect cells (BIICs). These BIIICs were used to infect High 5 insect cells. Four days post infection, media was harvested, and recombinant protein was prepared as follows. Media was chilled to 4° C. and spun at 4000×g for 20 minutes (all subsequent steps were performed at 4° C. unless noted). Clarified media was passed first through a Whatman GF/B 1 um (#1821-047, GE Healthcare Life Sciences, Piscataway, NJ) and then a 0.22 μm PES membrane (#99955, TPP Techno Plastic Products AG, Trasadingen, Switzerland) and then concentrated using a Pall Centramate tangential flow system and Centramate T-series Cassette (#OS010T12, Pall Corporation, Port Washington, NY). Concentrated media was then buffer exchanged in two steps, five volumes of 50 mM Na-phosphate, 500 mM NaCl, pH 6.2, followed by five volumes of 50 mM Na-phosphate, 500 mM NaCl, pH 7.5. […] After mixing this slurry for 12 hours, nickel agarose beads were allowed to settle by gravity and then loaded into a column. Beads were washed with buffer (25 mM Na-phosphate, 500 mM NaCl, 25 mM imidazole, pH 8) and the bound protein eluted using (25 mM Na-phosphate, 500 mM NaCl, 250 mM imidazole, pH 8). Using a Amicon Ultra-4 Centrifugal filters (#UFC801008, Merck Millipore, Ltd., Tullagreen, Ireland), peak protein fractions were concentrated and run over a Superdex-200 10/300 GL column (GE Healthcare Life Sciences, Piscataway, NJ) in 10 mM Tris, 200 mM NaCl, 0.2 mM EDTA, pH 8. HGFA containing fractions were pooled, concentrated, made 50% glycerol, and stored at minus 20° C. Protein was quantitated using a modified Lowry protein assay (#500-0006, Bio-Rad Laboratories, Hercules, CA) and specific activity determined using Boc-QLR-AMC substrate.
Fluorescent kinetic enzyme assays of HGFA, matriptase, and hepsin activity: Compounds (0-20 μM final concentration in reaction) were diluted in DMSO (2% DMSO final concentration in reaction) and then mixed with either recombinant HGFA serine protease domain, matriptase (#3946-SE-010, R&D Systems, Minneapolis, Minnesota), or activated hepsin* (#4776-SE-010, R&D Systems, Minneapolis, Minnesota) in black 384 well plates (Corning #3575. Coming, NY). The final assay concentration for HGFA, matriptase, and hepsin, were 6.25 nM, 0.2 nM, and 0.3 nM, respectively in TNC buffer (25 mM Tris, 150 mM NaCl, 5 mM CaCl2, 0.01% Triton X-100, pH 8). After thirty minutes of incubation at room temperature, Boc-QLR-AMC substrate was added (HGFA assay) or Boc-QAR-AMC substrate (matriptase, and hepsin assays). Fluorescence (excitation at 380 nm and emission at 460 nm) was kinetically measured at room temperature over a 1 hour time period using a Biotek Synergy 2 plate reader (Winnoski, VT). From a plot of the mean reaction velocity versus the inhibitor concentration, a non-linear four parameter curve fit was performed using GraphPad Prism (GraphPad Software, San Diego, CA) to determine inhibitor IC50s. The IC50 values were determined from the average of three or more separate experimental determinations. […]

SMILES | IC50 [1] [nM] | IC50 [2] [nM] | IC50 [3] [nM] | IC50 [4] [nM]
CC(=O)N[C@H]1CCC(=O)NCCCC[C@@H](C(=O)N[C@@H](CCCNC(=N)N)C(=O)c2nc3ccccc3s2)NC(=O)[C@H](CC(C)C)NC1=O [VD2169, (2S,5S,14S)-14-acetamido-N—((S)-1-(benzo[d]thiazol-2-yl)-5-guanidino-1-oxopentan-2-yl)-2-isobutyl-3,11,15-trioxo-1,4,10-triazacyclopentadecane-5-carboxamide] | 3.1 | 8.4 | 1710 | 
CC(=O)N[C@H]1Cc2ccc(cc2)OC/C=C\C[C@@H](C(=O)NC(CCCNC(=N)N)C(=O)c2nc3ccccc3s2)NC(=O)[C@H](CC(C)C)NC1=O (stereo partly drawn) [VD4010A] | 31.6 | 1.14 |  | 197
CC(=O)N[C@H]1Cc2ccc(cc2)OC/C=C\CNC(=O)CC[C@@H](C(=O)N[C@@H](CCCNC(=N)N)C(=O)c2nc3ccccc3s2)NC(=O)[C@H](CC(C)C)NC1=O [VD4018, (11S,14S,17S,Z)-17-acetamido-N—((S)-1-(benzo[d]thiazol-2-yl)-5-guanidino-1-oxopentan-2-yl)-14-isobutyl-8,13,16-trioxo-2-oxa-7,12,15-triaza-1(1,4)-benzenacyclooctadecaphan-4-ene-11-carboxamide] | 9.84 | 6.31 | 1240 | 
CC(=O)N[C@@H](Cc1ccc(O)c([N+](=O)[O-])c1)C(=O)N[C@@H](CC(C)C)C(=O)N[C@@H](Cc1ccc(Br)cc1)C(=O)N[C@H](CCCNC(=N)N)C(=O)c1nc2ccccc2s1 [VD4112A] | 111 | 23.9 |  | 3510
CC(=O)N[C@H]1Cc2ccc(cc2)OC/C=C\CNC(=O)C[C@@H](C(=O)N[C@H](CCCNC(=N)N)C(=O)c2nc3ccccc3s2)NC(=O)[C@H](CC(C)C)NC1=O [VD4054A] | 76.6 | 14 |  | > 20000
CC(=O)N[C@H]1CCCCn2cc(nn2)C[C@H](C(=O)N[C@H](CCCNC(=N)N)C(=O)c2nc3ccccc3s2)NC(=O)[C@H](CC(C)C)NC1=O [VD4118B] | 91.2 | 137 | 9540 | 10900
CC(=O)N[C@H]1Cc2ccc(cc2)OCCCC[C@@H](C(=O)N[C@H](CCCNC(=N)N)C(=O)c2nc3ccccc3s2)NC(=O)[C@H](Cc2ccccc2)NC1=O [VD4111A] | 330 | 12.7 |  | 3280

Next, values leading:

IC50 [1] [nM] | IC50 [2] [nM] | IC50 [3] [nM] | IC50 [4] [nM] | SMILES
19.6 | 25.1 | 1160 |  | CC(=O)N[C@H]1CCCCNC(=O)C[C@@H](C(=O)N[C@@H](CCCNC(=N)N)C(=O)c2nc3ccccc3s2)NC(=O)[C@H](CC(C)C)NC1=O [VD2167, (2S,5S,13S)-13-acetamido-N—((S)-1-(benzo[d]thiazol-2-yl)-5-guanidino-1-oxopentan-2-yl)-2-isobutyl-3,7,14-trioxo-1,4,8-triazacyclotetradecane-5-carboxamide]
1.1 | 92 |  | > 20000 | CC(C)C[C@@H]1NC(=O)[C@@H](N)CCCCNC(=O)C[C@@H](C(=O)N[C@@H](CCCNC(=N)N)C(=O)c2nc3ccccc3s2)NC1=O [VD1185, (2S,5S,13S)-13-amino-N—((S)-1-(benzo[d]thiazol-2-yl)-5-guanidino-1-oxopentan-2-yl)-2-isobutyl-3,7,14-trioxo-1,4,8-triazacyclotetradecane-5-carboxamide]
19.5 | 117 | 1930 | 15600 | CC(=O)N[C@H]1CCCCn2cc(nn2)C[C@H](C(=O)N[C@@H](CCCNC(=N)N)C(=O)c2nc3ccccc3s2)NC(=O)[C@H](CC(C)C)NC1=O [VD4118]
0.86 | 0.46 | 1550 | 11400 | CC(C)C[C@@H]1NC(=O)[C@@H](N)CC(=O)NCCCC[C@@H](C(=O)N[C@@H](CCCNC(=N)N)C(=O)c2nc3ccccc3s2)NC1=O [VD2055, (3S,6S,14S)-6-amino-N—((S)-1-(benzo[d]thiazol-2-yl)-5-guanidino-1-oxopentan-2-yl)-3-isobutyl-2,5,8-trioxo-1,4,9-triazacyclotetradecane-14-carboxamide]
9.49 | 1.15 |  | 14000 | CC(=O)N[C@@H](Cc1ccc(O)c([N+](=O)[O-])c1)C(=O)N[C@@H](CC(C)C)C(=O)N[C@@H](Cc1ccc(Br)cc1)C(=O)N[C@@H](CCCNC(=N)N)C(=O)c1nc2ccccc2s1 [VD4112]
11.5 | 11.9 |  | > 20000 | CC(C)C[C@@H]1NC(=O)[C@@H](N)CCCCNC(=O)CC[C@@H](C(=O)N[C@@H](CCCNC(=N)N)C(=O)c2nc3ccccc3s2)NC1=O [VD2056, (2S,5S,14S)-14-amino-N—((S)-1-(benzo[d]thiazol-2-yl)-5-guanidino-1-oxopentan-2-yl)-2-isobutyl-3,8,15-trioxo-1,4,9-triazacyclopentadecane-5-carboxamide]
0.19 | 0.14 |  | 4090 | CC(=O)N[C@H]1CCCCNC(=O)CCC(C(=O)N[C@H](CCCNC(=N)N)C(=O)c2nc3ccccc3s2)NC(=O)[C@H](CCCNC(=N)N)NC1=O (stereo partly drawn) [VD2109A]
0.13 | 0.08 |  | 5050 | CC(=O)N[C@H]1CCCCNC(=O)CC[C@@H](C(=O)N[C@@H](CCCNC(=N)N)C(=O)c2nc3ccccc3s2)NC(=O)[C@H](CCCNC(=N)N)NC1=O [VD2109, (2S,5S,14S)-14-acetamido-N—((S)-1-(benzo[d]thiazol-2-yl)-5-guanidino-1-oxopentan-2-yl)-2-(3-guanidinopropyl)-3,8,15-trioxo-1,4,9-triazacyclopentadecane-5-carboxamide]
